In patent EP4631937A1, “CRYSTALLINE FORM OR AMORPHOUS FORM OF OXOISOINDOLE-5-FORMAMIDE COMPOUND OR SALT AND SOLVATE THEREOF” (Hangzhou Glubio Pharmaceutical Co., Ltd., priority 2022, dated 2024):

Key:
Format in all cases: physicochemical
[1] = Stability test of crystalline forms (open container at 25°C/92% RH and 40°C/75% RH, sealed container at 60°C, 13 days; XRPD, HPLC, colour); settings: for Initial purity (HPLC/SFC) Chemical purity / Initial purity (HPLC/SFC) Chiral purity: before storage
Protocol: Placed in a open container at 25°C/92% RH and 40°C/75% RH for 13 days, respectively, or in a sealed container at 60°C for 13 days. […]
(§1) Placed in a open container at 25 °C/92% RH and 40 °C/75% RH for 13 days, respectively, or in a sealed container at 60 °C for 13 days. […]
as §1

[2] = Hygroscopicity test by DVS, with XRPD after DVS; settings: for 1st adsorption weight change percentage / 1st desorption weight change percentage / 2nd adsorption weight change percentage / 2nd desorption weight change percentage / XRPD after DVS test / moisture adsorbed (DVS): 25 °C; for XRPD after DVS test: after 40-0-95-0-40% RH
Protocol: • DVS Intrinsic Dynamic Vapor Sorption Instrument • Gas flow rate 200 sccm, furnace temperature 25 °C.
(§2) The hygroscopicity and dehydration behavior of crystalline form B was investigated by DVS. Humidity program: 25 °C, 40-0-95-0-40% RH, dm/dt 0.002, shortest equilibrium time was 60 min, and longest equilibrium time was 360 min. XRPD was also performed on the samples after DVS test to determine whether the crystal transformation occurred.
as §2, with “E” for “B”
as §2, with “G” for “B”

[3] = Stability test of crystalline forms (open container at 25°C/92% RH and 40°C/75% RH, sealed container at 60°C, 13 days; XRPD, HPLC, colour); settings: for Color / Chemical purity / Chiral purity / Solid (XRPD): Solid; for Chemical purity / Chiral purity: HPLC/SFC
[4] = relative humidity 0%, listed as Crystalline form E
[5] = relative humidity 10%, listed as Crystalline form E
[6] = relative humidity 20%, listed as Crystalline form E
[7] = relative humidity 30%, listed as Crystalline form E
[8] = relative humidity 40%, listed as Crystalline form E
[9] = relative humidity 50%, listed as Crystalline form E
[10] = relative humidity 60%, listed as Crystalline form E
[11] = relative humidity 70%, listed as Crystalline form E
[12] = relative humidity 80%, listed as Crystalline form E
[13] = relative humidity 90%, listed as Crystalline form E
[14] = relative humidity 95%, listed as Crystalline form E
[15] = 25 °C/92% RH, open container, 1 week, listed as Crystalline form E
[16] = 40 °C/75% RH, open container, 1 week, listed as Crystalline form E
[17] = 60 °C, sealed container, 1 week, listed as Crystalline form E
[18] = Solid, 40 °C/75% RH, open container, 13 days
[19] = relative humidity 0%, listed as Crystalline form B
[20] = relative humidity 10%, listed as Crystalline form B
[21] = relative humidity 20%, listed as Crystalline form B
[22] = relative humidity 30%, listed as Crystalline form B
[23] = relative humidity 40%, listed as Crystalline form B
[24] = relative humidity 50%, listed as Crystalline form B
[25] = relative humidity 60%, listed as Crystalline form B
[26] = relative humidity 70%, listed as Crystalline form B
[27] = relative humidity 80%, listed as Crystalline form B
[28] = relative humidity 90%, listed as Crystalline form B
[29] = relative humidity 95%, listed as Crystalline form B
[30] = 25 °C/92% RH, open container, 13 days
[31] = 40 °C/75% RH, open container, 13 days
[32] = 60 °C, sealed container, 13 days

In the case of `O=C1CC[C@H](N2Cc3cc(C(=O)N[C@H](c4ccc(Cl)cn4)C4CCC4)ccc3C2=O)C(=O)N1` [crystalline form E, N-((S)-(5-chloropyridin-2-yl)(cyclobutyl)methyl)-2-((S)-2,6-dioxopiperidin-3-yl)-1-oxoisoindoline-5-carboxamide], the “Initial purity (HPLC/SFC) Chemical purity” value ([1]; listed as Crystalline form E) is reported as 99.3% See Figure 16a, the “Initial purity (HPLC/SFC) Chiral purity” value ([1]; listed as Crystalline form E) is reported as 98.7% See Figure 16b and the “1st adsorption weight change percentage” value [2, 4] is reported as 0.1%. The “1st desorption weight change percentage” value [2, 4] was 0.1%, the “1st adsorption weight change percentage” value [2, 5] was 0.3% and the “1st desorption weight change percentage” value [2, 5] was 0.3%. The “2nd adsorption weight change percentage” value [2, 5] was 0.3%, the “2nd desorption weight change percentage” value [2, 5] was 0.3% and the “1st adsorption weight change percentage” value [2, 6] was 1.3%. The “1st desorption weight change percentage” value [2, 6] was 1.3%, the “2nd adsorption weight change percentage” value [2, 6] was 1.3% and the “2nd desorption weight change percentage” value [2, 6] was 1.3%. The “1st adsorption weight change percentage” value [2, 7] was 1.6%, the “1st desorption weight change percentage” value [2, 7] was 1.6% and the “2nd adsorption weight change percentage” value [2, 7] was 1.6%. The “2nd desorption weight change percentage” value [2, 7] was 1.6%, the “1st adsorption weight change percentage” value [2, 8] was 2.0% and the “1st desorption weight change percentage” value [2, 8] was 2.0%. For the same compound, the “2nd adsorption weight change percentage” value [2, 8] was 2.0%, the “2nd desorption weight change percentage” value [2, 8] was 2.0% and the “1st adsorption weight change percentage” value [2, 9] was 2.7%. The “2nd desorption weight change percentage” value [2, 9] was 2.8%, the “1st adsorption weight change percentage” value [2, 10] was 3.1% and the “2nd desorption weight change percentage” value [2, 10] was 3.3%. The “1st adsorption weight change percentage” value [2, 11] was 3.5%, the “2nd desorption weight change percentage” value [2, 11] was 3.5% and the “1st adsorption weight change percentage” value [2, 12] was 3.6%. The “2nd desorption weight change percentage” value [2, 12] was 3.6%, the “1st adsorption weight change percentage” value [2, 13] was 3.8% and the “2nd desorption weight change percentage” value [2, 13] was 3.8%. The “1st adsorption weight change percentage” value [2, 14] was 4.0%, the “2nd desorption weight change percentage” value [2, 14] was 4.0% and the “XRPD after DVS test” value ([2]; listed as Crystalline form E) was “The crystal form did not change, see Figure 19b”. The “moisture adsorbed (DVS)” value ([2]; under 40%RH-95%RH, listed as Crystalline form E) was 2.0% of moisture was adsorbed under 40%RH-95%RH, see Figure 19a, the Color ([3]; 25 °C/92% RH, open container, 1 week) was “No color change” and the Chemical purity [3, 15] was 98.3% See Figure 16c. For the same compound, the Chiral purity [3, 15] was 98.6% See Figure 16d, the “Solid (XRPD)” value [3, 15] was “The crystal form did not change, see Figure 16e” and the Color ([3]; 40 °C/75% RH, open container, 1 week) was “No color change”. For the same compound, the Chemical purity [3, 16] was 98.6% See Figure 16f, the Chiral purity [3, 16] was 98.6% See Figure 16g and the “Solid (XRPD)” value [3, 16] was “The crystal form did not change, see Figure 16e”. The Color ([3]; 60 °C, sealed container, 1 week) was “No color change”, the Chemical purity [3, 17] was 98.8% See Figure 16h and the Chiral purity [3, 17] was 98.7% See Figure 16i. For the same compound, the “Solid (XRPD)” value [3, 17] was “The crystal form did not change, see Figure 16e”.
In the case of `O=C1CC[C@H](N2Cc3cc(C(=O)N[C@H](c4ccc(Cl)cn4)C4CCC4)ccc3C2=O)C(=O)N1` [crystalline form B, N-((S)-(5-chloropyridin-2-yl)(cyclobutyl)methyl)-2-((S)-2,6-dioxopiperidin-3-yl)-1-oxoisoindoline-5-carboxamide], the Chemical purity ([1]; Solid, 25 °C/92% RH, open container, 13 days, HPLC/SFC) is reported as 99.2% See Figure 15c, the Color [1, 18] is reported as “No color change” and the “Solid (XRPD)” value [1, 18] is reported as “The crystal form did not change, see Figure 15e”. For the same compound, the “Initial purity (HPLC/SFC) Chemical purity” value ([1]; listed as Crystalline form B) was 99.5% See Figure 15a, the “Initial purity (HPLC/SFC) Chiral purity” value ([1]; listed as Crystalline form B) was 99.0% See Figure 15b and the “2nd adsorption weight change percentage” value ([2]; relative humidity 0%) was 0.0%. For the same compound, the “2nd desorption weight change percentage” value ([2]; relative humidity 0%) was 0.0%, the “1st adsorption weight change percentage” value [2, 19] was 1.6% and the “1st desorption weight change percentage” value [2, 19] was 1.6%. The “1st adsorption weight change percentage” value [2, 20] was 2.0%, the “1st desorption weight change percentage” value [2, 20] was 2.0% and the “2nd adsorption weight change percentage” value [2, 20] was 0.4%. The “2nd desorption weight change percentage” value [2, 20] was 0.4%, the “1st adsorption weight change percentage” value [2, 21] was 2.7% and the “1st desorption weight change percentage” value [2, 21] was 2.7%. For the same compound, the “2nd adsorption weight change percentage” value [2, 21] was 1.1%, the “2nd desorption weight change percentage” value [2, 21] was 1.1% and the “1st adsorption weight change percentage” value [2, 22] was 3.2%. For the same compound, the “1st desorption weight change percentage” value [2, 22] was 3.3%, the “2nd adsorption weight change percentage” value [2, 22] was 1.7% and the “2nd desorption weight change percentage” value [2, 22] was 1.7%. The “1st adsorption weight change percentage” value [2, 23] was 3.7%, the “1st desorption weight change percentage” value [2, 23] was 3.8% and the “2nd adsorption weight change percentage” value [2, 23] was 2.2%. For the same compound, the “2nd desorption weight change percentage” value [2, 23] was 2.3%, the “1st adsorption weight change percentage” value [2, 24] was 4.5% and the “2nd desorption weight change percentage” value [2, 24] was 3.3%. For the same compound, the “1st adsorption weight change percentage” value [2, 25] was 5.0%, the “2nd desorption weight change percentage” value [2, 25] was 3.9% and the “1st adsorption weight change percentage” value [2, 26] was 5.4%. For the same compound, the “2nd desorption weight change percentage” value [2, 26] was 5.4%, the “1st adsorption weight change percentage” value [2, 27] was 5.9% and the “2nd desorption weight change percentage” value [2, 27] was 5.9%. The “1st adsorption weight change percentage” value [2, 28] was 6.9%, the “2nd desorption weight change percentage” value [2, 28] was 7.3% and the “1st adsorption weight change percentage” value [2, 29] was 9.2%. For the same compound, the “2nd desorption weight change percentage” value [2, 29] was 9.2%, the “XRPD after DVS test” value ([2]; listed as Crystalline form B) was “The crystal form did not change, see Figure 18b” and the “stability (crystal form)” value ([2]; hygroscopic tests of Table 17, Table 18 and Table 19, DVS 25 °C, 40-0-95-0-40% RH) was “the crystal form did not change”. The “moisture adsorbed (DVS)” value ([2]; under 40%RH-80%RH) was 2.2%, the “moisture adsorbed (DVS)” value ([2]; under 40%RH-95%RH, listed as Crystalline form B) was 5.5% and the Color [3, 30] was “No color change”. The “Solid (XRPD)” value [3, 30] was “The crystal form did not change, see Figure 15e”, the Chiral purity [3, 30] was 98.8% See Figure 15d and the Chemical purity [3, 31] was 97.9% See Figure 15f. The Chiral purity [3, 31] was 98.8% See Figure 15g, the Color [3, 32] was “No color change” and the “Solid (XRPD)” value [3, 32] was “The crystal form did not change, see Figure 15e”. The Chemical purity [3, 32] was 97.8% See Figure 15h, the Chiral purity [3, 32] was 98.9% See Figure 15i and the “stability (crystal form)” value ([3]; stability tests of Table 14, Table 15 and Table 16, 25°C/92% RH, 40°C/75% RH, 60°C, 13 days) was “the crystal form did not change”.
